As a reminder, the pIC50 is the negative decadic logarithm of the IC50, by convention in mol/L. A high value points to a low IC50.

The structures appear in SMILES notation. pIC50: −log10 of the molar value. *1 amine or outer side, *2 acyl side, *3 side chain or, on linkers, in order; H or OH if unused. Where a SMILES comes first, the peptide text is derived from it. [ ]: non-standard residue; d: D form. The star is where a group is joined. Hydrocinnamoyl(4-OSO3H) = O=C(CCc1ccc(OS(=O)(=O)O)cc1)*; X2 = O=C([C@@H]1CC(OS(=O)(=O)O)CN1[*:1])[*:2]; X5 = CCC[C@H]1CCN([*:1])[C@@H]1C(=O)[*:2]; X4 = O=C(c1ccc2cc(OS(=O)(=O)O)ccc2c1)*; X1 = CCCC1CCN([*:1])[C@@H]1C(=O)[*:2]; X3 = O=C(/C(=C/c1ccccc1)N[*:1])[*:2]; NMeF = CN[C@@H](Cc1ccccc1)C(=O)O; Nle = CCCC[C@H](N)C(=O)O; Ava = NCCCCC(=O)O

The target of experiment [1] is Gastrin/cholecystokinin type B receptor (Cavia porcellus). The experiment in a line: Evaluated in vitro for its binding affinity towards cholecystokinin type B receptor of guinea pig cortex.
Experiment [2] concerns the target Cholecystokinin receptor type A (Cavia porcellus). Kind of experiment: Evaluated in vitro for its binding affinity towards cholecystokinin type A receptor of guinea pig pancreas.
Experiment [3] deals with Gastrin/cholecystokinin type B receptor (Cavia porcellus). The experiment in a line: Evaluated in vitro for its binding affinity towards cholecystokinin type B receptor of guinea pig cortex. This is another data set of the same source.
Experiment [4] has the same target. Kind of experiment: In vitro binding affinity towards Cholecystokinin type B receptor of guinea pig cortex.

In experiment [1], `CCCC[C@H](NC(=O)[C@H](Cc1c[nH]c2ccccc12)NC(=O)CNC(=O)[C@H](CC(C)C)NC(=O)CCc1ccc(OS(=O)(=O)O)cc1)C(=O)N[C@@H](CC(=O)O)C(=O)N[C@@H](Cc1ccccc1)C(N)=O` ({Hydrocinnamoyl(4-OSO3H)}-LGW[Nle]DF-NH2) had a pIC50 of 9.23.
Still for that read-out and setting: the result for `CCCC[C@H](NC(=O)c1ccc2cc(OS(=O)(=O)O)ccc2c1)C(=O)NCC(=O)N[C@@H](Cc1c[nH]c2ccccc12)C(=O)N[C@@H](CCCC)C(=O)N[C@@H](CC(=O)O)C(=O)N[C@@H](Cc1ccccc1)C(N)=O` (X4-[Nle]GW[Nle]DF-NH2) reads 7.49; that for `CCCC[C@H](NC(=O)[C@H](Cc1c[nH]c2ccccc12)NC(=O)CN1CC[C@H](NC(=O)CCc2ccc(OS(=O)(=O)O)cc2)C1=O)C(=O)N[C@@H](CC(=O)O)C(=O)N[C@@H](Cc1ccccc1)C(N)=O`, 7.82.
Take `CCCC[C@H](NC(=O)CCc1ccc(OS(=O)(=O)O)cc1)C(=O)NCC(=O)N[C@@H](Cc1c[nH]c2ccccc12)C(=O)N[C@@H](CCCC)C(=O)N1CC(OS(=O)(=O)O)C[C@H]1C(=O)N[C@@H](Cc1ccccc1)C(N)=O` (some centres undefined) ({Hydrocinnamoyl(4-OSO3H)}-[Nle]GW[Nle][X2]F-NH2): the pIC50 is 7.80 in experiment [2] and 6.85 in experiment [3].
In the case of `CCCC[C@H](NC(=O)CCc1ccc(OS(=O)(=O)O)cc1)C(=O)NCC(=O)N[C@@H](Cc1c[nH]c2ccccc12)C(=O)N1CCC(CCC)[C@H]1C(=O)N[C@@H](CC(=O)O)C(=O)N(C)[C@@H](Cc1ccccc1)C(N)=O` (some centres undefined) ({Hydrocinnamoyl(4-OSO3H)}-[Nle]GW[X1]D[NMeF]-NH2), the results for the pIC50 in experiment [2] and in experiment [3] were 8.38 and 9.52, respectively.
`CC(C)C[C@H](NC(=O)[C@H](Cc1c[nH]c2ccccc12)NC(=O)CCCCNC(=O)CCc1ccc(OS(=O)(=O)O)cc1)C(=O)N[C@@H](CC(=O)O)C(=O)N[C@@H](Cc1ccccc1)C(N)=O` ({Hydrocinnamoyl(4-OSO3H)-Ava}-WLDF-NH2) gave a pIC50 in experiment [1] of 8.96.
Turning to `CCCC[C@H](NC(=O)CCc1ccc(OS(=O)(=O)O)cc1)C(=O)NCC(=O)N[C@@H](Cc1c[nH]c2ccccc12)C(=O)N[C@@H](CCCC)C(=O)N[C@@H](CC(=O)O)C(=O)N(C)[C@@H](Cc1ccccc1)C(N)=O` [CCK7 analogue] ({Hydrocinnamoyl(4-OSO3H)}-[Nle]GW[Nle]D[NMeF]-NH2), the pIC50 was 9.00 in experiment [2] and 8.00 in experiment [3].
For `CCC[C@H]1CCN(C(=O)[C@H](Cc2c[nH]c3ccccc23)NC(=O)CNC(=O)[C@@H]2CCCN2C(=O)CCc2ccc(OS(=O)(=O)O)cc2)[C@@H]1C(=O)N[C@@H](CC(=O)O)C(=O)N(C)[C@@H](Cc1ccccc1)C(N)=O` ({Hydrocinnamoyl(4-OSO3H)}-PGW[X5]D[NMeF]-NH2), the pIC50 in experiment [1] is 9.05.
Regarding `CCCC[C@H](NC(=O)[C@H](Cc1c[nH]c2ccccc12)NC(=O)CNC(=O)[C@@H](CCCC)NC(=O)CCc1ccc(OS(=O)(=O)O)cc1)C(=O)N[C@@H](CC(=O)O)C(=O)N[C@@H](Cc1ccccc1)C(N)=O`, the negative logarithm of the IC50 (pIC50) in experiment [4] is 8.10.
Turning to `CCCC[C@H](NC(=O)CCc1ccc(OS(=O)(=O)O)cc1)C(=O)NCC(=O)N[C@@H](Cc1c[nH]c2ccccc12)C(=O)N[C@@H](CCCC)C(=O)N[C@@H](CC(=O)O)C(=O)N/C(=C\c1ccccc1)C(N)=O` ({Hydrocinnamoyl(4-OSO3H)}-[Nle]GW[Nle]D[X3]-NH2), in experiment [2], the pIC50 is 8.28.
`CCCC[C@H](NC(=O)CCc1ccc(OS(=O)(=O)O)cc1)C(=O)NCC(=O)N[C@@H](Cc1c[nH]c2ccccc12)C(=O)N[C@@H](CCCC)C(=O)N[C@@H](CC(=O)O)C(=O)N[C@@H](Cc1ccccc1)C(N)=O` had a pIC50 in experiment [1] of 9.30.

Source of the values: BindingDB's records for doi:10.1021/jm00094a001 (Abbott Laboratories, 1992).
